Consider 29 compounds from patent US20250325552A1, “SUBSTITUTED THIADIAZOLYL DERIVATIVES AS DNA POLYMERASE THETA INHIBITORS” (IDEAYA Biosciences, Inc., priority 2020, published 2025).

Some results are limits rather than exact numbers.

In one test the target is Polθ theta (1-899) (hPolQ) (Homo sapiens (Human), UniProt O75417). Briefly: Biological Assay 1: Polθ ATPase activity, NADH oxidation-coupled enzymatic assay (10 nM enzyme, 30 min). Particulars: Polθ (1-899) 10 nM, 100 μM ATP, 300 nM dT50 ssDNA; Examples 1 to 268; read-out: ATPase NADH coupling:Standard Screening:hPolQ IC50. It counts as biochemical. The method, boiled down: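 Polθ (1-899) at 10 nM was preincubated with compound for 15 min at room temperature in 20 mM Tris pH 7.80, 80 mM KCl, 10 mM MgCl2. An equal volume of 100 μM ATP, 300 nM dT50 ssDNA and a PK/LDH–NADH coupling system was then added. A340 was read each minute for 30 min. IC50 came from rate slopes over 10-point series with a four-parameter fit.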
Chain of Polθ theta (1-899) (hPolQ) (O75417 1-899): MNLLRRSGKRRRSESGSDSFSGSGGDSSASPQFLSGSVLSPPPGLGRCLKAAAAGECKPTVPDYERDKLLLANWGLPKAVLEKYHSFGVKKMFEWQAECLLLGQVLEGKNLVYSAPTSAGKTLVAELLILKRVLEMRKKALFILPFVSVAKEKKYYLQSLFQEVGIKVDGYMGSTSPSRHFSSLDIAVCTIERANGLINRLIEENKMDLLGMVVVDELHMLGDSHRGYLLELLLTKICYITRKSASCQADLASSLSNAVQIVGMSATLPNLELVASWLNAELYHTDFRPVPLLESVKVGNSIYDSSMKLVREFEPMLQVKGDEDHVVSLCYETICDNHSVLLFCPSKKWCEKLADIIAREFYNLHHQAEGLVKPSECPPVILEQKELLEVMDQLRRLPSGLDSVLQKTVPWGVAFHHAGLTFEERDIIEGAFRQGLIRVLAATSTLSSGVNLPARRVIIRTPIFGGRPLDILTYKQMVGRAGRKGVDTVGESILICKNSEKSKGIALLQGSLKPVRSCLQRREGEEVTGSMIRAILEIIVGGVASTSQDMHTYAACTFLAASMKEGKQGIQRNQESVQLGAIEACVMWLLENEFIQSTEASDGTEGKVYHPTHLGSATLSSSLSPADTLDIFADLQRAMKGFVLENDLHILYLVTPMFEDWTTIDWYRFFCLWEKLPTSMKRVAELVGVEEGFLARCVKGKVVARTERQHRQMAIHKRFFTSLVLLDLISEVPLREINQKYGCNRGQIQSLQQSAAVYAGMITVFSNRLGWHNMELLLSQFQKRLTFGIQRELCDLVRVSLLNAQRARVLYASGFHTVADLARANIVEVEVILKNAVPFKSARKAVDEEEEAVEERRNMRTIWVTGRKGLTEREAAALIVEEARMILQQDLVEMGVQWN
On to `Cc1cc(-c2cc(C)ncc2C(=O)Nc2nnc(OCc3ccc(C(C)(C)O)cn3)s2)ccn1` [Example 89, N-(5-((5-(2-hydroxypropan-2-yl)pyridin-2-yl)methoxy)-1,3,4-thiadiazol-2-yl)-2′,6-dimethyl-(4,4′-bipyridine)-3-carboxamide], for which the IC50 was in the range of 200 to 500 nM. Same read-out and setting: to `COc1cccc(F)c1-c1cc(C)ncc1C(=O)Nc1nnc(OCc2ccc3c(n2)CCOC3)s1` [Example 102, 4-(2-fluoro-6-methoxyphenyl)-6-methyl-N-(5-(5H,7H,8H-pyrano(4,3-b)pyridin-2-ylmethoxy)-1,3,4-thiadiazol-2-yl)pyridine-3-carboxamide] belongs ≤ 200 nM; to `COc1cnc(Cl)cc1-c1cc(C)ncc1C(=O)Nc1nnc(OCC2COC3(CCC3)C2)s1` (centres unmarked) [Example 224, N-(5-((5-oxaspiro(3.4)octan-7-yl)methoxy)-1,3,4-thiadiazol-2-yl)-2′-chloro-5′-methoxy-6-methyl-(4,4′-bipyridine)-3-carboxamide], ≤ 200 nM; to `COc1cccc(F)c1-c1cccnc1C(=O)Nc1nnc(OCc2ccc(Cl)cn2)s1` [Example 19, N-(5-((5-chloropyridin-2-yl)methoxy)-1,3,4-thiadiazol-2-yl)-3-(2-fluoro-6-methoxyphenyl)picolinamide], 1000 to 10000 nM. Still for that read-out and setting: then `COc1cnc(Cl)c(F)c1-c1cc(C)ncc1C(=O)Nc1nnc(OC[C@@H]2COCCO2)s1` [Example 239, N-(5-(((S)-1,4-dioxan-2-yl)methoxy)-1,3,4-thiadiazol-2-yl)-2′-chloro-3′-fluoro-5′-methoxy-6-methyl-(4,4′-bipyridine)-3-carboxamide], with ≤ 200 nM. Same read-out and setting: then `COc1ccnc(COc2nnc(NC(=O)c3cnc(C)cc3-c3c(F)cccc3OC)s2)c1` [Example 67, 4-(2-fluoro-6-methoxyphenyl)-N-(5-((4-methoxypyridin-2-yl)methoxy)-1,3,4-thiadiazol-2-yl)-6-methylnicotinamide], with ≤ 200 nM; and `COc1cnc(Cl)cc1-c1cc(C)ncc1C(=O)Nc1nnc(OCC2(F)CC2)s1` [Example 198, 2′-chloro-N-(5-((1-fluorocyclopropyl)methoxy)-1,3,4-thiadiazol-2-yl)-5′-methoxy-6-methyl-(4,4′-bipyridine)-3-carboxamide], with ≤ 200 nM.

As to `COc1cnc(Cl)cc1-c1cc(C)ncc1C(=O)Nc1nnc(OCC2CC2(F)F)s1` (centres unmarked) [Example 206, 2′-chloro-N-(5-((2,2-difluorocyclopropyl)methoxy)-1,3,4-thiadiazol-2-yl)-5′-methoxy-6-methyl-(4,4′-bipyridine)-3-carboxamide], the IC50 is ≤ 200 nM. On the same count and under the same terms, to `COc1cnc(Cl)cc1-c1cc(C)ncc1C(=O)Nc1nnc(OCC2COC(C)(C)CO2)s1` (centres unmarked) [Example 228, 2′-chloro-N-(5-((5,5-dimethyl-1,4-dioxan-2-yl)methoxy)-1,3,4-thiadiazol-2-yl)-5′-methoxy-6-methyl-(4,4′-bipyridine)-3-carboxamide] belongs ≤ 200 nM; to `COc1cnc(Cl)cc1-c1cc(C)ncc1C(=O)Nc1nnc(OCC2COC(C)(C)C2)s1` (stereo in doubt) [Example 188, (R)-2′-chloro-N-(5-((5,5-dimethyltetrahydrofuran-3-yl)methoxy)-1,3,4-thiadiazol-2-yl)-5′-methoxy-6-methyl-(4,4′-bipyridine)-3-carboxamide], ≤ 200 nM; to `CN=[S@@](C)(=O)c1ccc(COc2nnc(NC(=O)c3cnc(C)cc3-c3cc(Cl)ccc3OC)s2)nc1` [Example 152, (S)-4-(5-chloro-2-methoxyphenyl)-N-(5-((5-(N,S-dimethylsulfonimidoyl)pyridin-2-yl)methoxy)-1,3,4-thiadiazol-2-yl)-6-methylnicotinamide], ≤ 200 nM. Consider `COc1cnc(Cl)cc1-c1cc(C)ncc1C(=O)Nc1nnc(OCC2CCOC2)s1` (stereo in doubt) [Example 170, (R)-2′-chloro-5′-methoxy-6-methyl-N-(5-((tetrahydrofuran-3-yl)methoxy)-1,3,4-thiadiazol-2-yl)-(4,4′-bipyridine)-3-carboxamide], for which the IC50 is ≤ 200 nM. The same measure, in the same setting: then `COc1cnc(Cl)cc1-c1cc(C)ncc1C(=O)Nc1nnc(OCc2ccc(CO)cn2)s1` [Example 60, 2′-chloro-N-(5-((5-(hydroxymethyl)pyridin-2-yl)methoxy)-1,3,4-thiadiazol-2-yl)-5′-methoxy-6-methyl-[4,4′-bipyridine]-3-carboxamide], with ≤ 200 nM. Same read-out and setting: then `COc1cnc(Cl)cc1-c1cc(C)ncc1C(=O)Nc1nnc(OC[C@H]2C[C@@H](O)C2)s1` [Example 193, 2′-chloro-N-(5-(((1s,3s)-3-hydroxycyclobutyl)methoxy)-1,3,4-thiadiazol-2-yl)-5′-methoxy-6-methyl-(4,4′-bipyridine)-3-carboxamide], with ≤ 200 nM; and `COc1cnc(Cl)cc1-c1cc(C)ncc1C(=O)Nc1nnc(OC[C@@H]2COC[C@@H]2C)s1` (single isomer, unassigned) [Example 265], with ≤ 200 nM. Same read-out and setting: to `COc1cnc(Cl)cc1-c1cc(C)ncc1C(=O)Nc1nnc(OC[C@@H]2COC(C)(C)CO2)s1` (single isomer, unassigned) [Example 222] belongs ≤ 200 nM; to `COc1cnc(Cl)cc1-c1cc(C)ncc1C(=O)Nc1nnc(OC[C@H]2COCCO2)s1` [Example 187, (R)—N-(5-((1,4-dioxan-2-yl)methoxy)-1,3,4-thiadiazol-2-yl)-2′-chloro-5′-methoxy-6-methyl-(4,4′-bipyridine)-3-carboxamide], ≤ 200 nM; to `COc1cnc(C)c(F)c1-c1cc(C)ncc1C(=O)Nc1nnc(OC[C@H]2CC[C@@](C)(O)CC2)s1` [Example 213, 3′-fluoro-N-(5-(((1s,4s)-4-hydroxy-4-methylcyclohexyl)methoxy)-1,3,4-thiadiazol-2-yl)-5′-methoxy-2′,6-dimethyl-(4,4′-bipyridine)-3-carboxamide], ≤ 200 nM. For the compound `COc1ccccc1-c1cc(C)ncc1C(=O)Nc1nnc(OC[C@H](O)c2ccc(Cl)cn2)s1` [Example 27, (R)—N-(5-(2-(5-chloropyridin-2-yl)-2-hydroxyethoxy)-1,3,4-thiadiazol-2-yl)-4-(2-methoxyphenyl)-6-methylnicotinamide], the IC50 fell in the range of 200 to 500 nM. `COc1cnc(Cl)cc1-c1cc(C)ncc1C(=O)Nc1nnc(OCc2ccc3c(n2)OCCO3)s1` [Example 51, 2′-chloro-N-(5-((2,3-dihydro-[1,4]dioxino[2,3-b]pyridin-6-yl)methoxy)-1,3,4-thiadiazol-2-yl)-5′-methoxy-6-methyl-[4,4′-bipyridine]-3-carboxamide]: the IC50 was ≤ 200 nM. On the same count and under the same terms, to `Cc1cc(-c2cc(Cl)ncc2OC(F)F)c(C(=O)Nc2nnc(OCC3CCOC3)s2)cn1` (racemic) [Example 259, 2′-chloro-5′-(difluoromethoxy)-6-methyl-N-(5-((tetrahydrofuran-3-yl)methoxy)-1,3,4-thiadiazol-2-yl)-(4,4′-bipyridine)-3-carboxamide] belongs ≤ 200 nM; to `COc1cnc(C)cc1-c1cc(C)ncc1C(=O)Nc1nnc(OCc2ccc(C(C)(C)O)cn2)s1` [Example 76, N-(5-((5-(2-hydroxypropan-2-yl)pyridin-2-yl)methoxy)-1,3,4-thiadiazol-2-yl)-5′-methoxy-2′,6-dimethyl-(4,4′-bipyridine)-3-carboxamide], ≤ 200 nM. Still for that read-out and setting: then `COc1cccc(F)c1-c1cc(C)ncc1C(=O)Nc1nnc(OCc2ccc(CCO)cn2)s1` [Example 55, 4-(2-fluoro-6-methoxyphenyl)-N-(5-((5-(2-hydroxyethyl)pyridin-2-yl)methoxy)-1,3,4-thiadiazol-2-yl)-6-methylnicotinamide], with ≤ 200 nM; and `COc1cnc(Cl)cc1-c1cc(C)ncc1C(=O)Nc1nnc(OC[C@H]2CC[C@H](OC)CC2)s1` [Example 137, 2′-chloro-5′-methoxy-N-(5-(((1r,4r)-4-methoxycyclohexyl)methoxy)-1,3,4-thiadiazol-2-yl)-6-methyl-[4,4′-bipyridine]-3-carboxamide], with ≤ 200 nM; and `COc1cccc(F)c1-c1cc(C)ncc1C(=O)Nc1nnc(OCc2ccc(OC(C)C)cn2)s1` [Example 75, 4-(2-fluoro-6-methoxyphenyl)-N-(5-((5-isopropoxypyridin-2-yl)methoxy)-1,3,4-thiadiazol-2-yl)-6-methylnicotinamide], with ≤ 200 nM. On the same count and under the same terms, to `COc1ccc(C#N)cc1-c1cc(C)ncc1C(=O)Nc1nnc(OCc2ccc(CO)cn2)s1` [Example 32, 4-(5-cyano-2-methoxyphenyl)-N-(5-((5-(hydroxymethyl)pyridin-2-yl)methoxy)-1,3,4-thiadiazol-2-yl)-6-methylpyridine-3-carboxamide] belongs ≤ 200 nM; to `COc1cccc(F)c1-c1cc(C)ncc1C(=O)Nc1nnc(OCc2ccc(OC(F)F)cn2)s1` [Example 49, N-(5-((5-(difluoromethoxy)pyridin-2-yl)methoxy)-1,3,4-thiadiazol-2-yl)-4-(2-fluoro-6-methoxyphenyl)-6-methylnicotinamide], ≤ 200 nM; to `COc1cccc(F)c1-c1cc(C)ncc1C(=O)Nc1nnc(OCc2ccc([S@](C)(=N)=O)cn2)s1` [Example 149, 4-(2-fluoro-6-methoxyphenyl)-6-methyl-N-(5-((5-((R)—S-methylsulfonimidoyl)pyridin-2-yl)methoxy)-1,3,4-thiadiazol-2-yl)nicotinamide], ≤ 200 nM.

The test is the same for the next values; noted with them: Polθ (1-899) 10 nM, 100 μM ATP, 300 nM dT50 ssDNA; value printed as bound; read-out: ATPase NADH coupling:Standard Screening:hPolQ IC50.
In the case of `O=C(Nc1nnc(OCC2CCOCC2)s1)c1cccnc1N1CCOCC1` [Example 157, 2-morpholino-N-(5-((tetrahydro-2H-pyran-4-yl)methoxy)-1,3,4-thiadiazol-2-yl)nicotinamide], the 50% inhibitory concentration (IC50) was > 10000 nM.
